Values after ≈ are worked out from the molar mass of the structure shown. Read-outs that look alike come from different tables or passages of the source. Marks after values point to notes of the source that are not given here.
Columns and labels:
[1] = Corn seed treatment field trials (yield); type: in vivo; conditions: seed treatment in corn, multi-location replicated field trials
Experimental: (§1) Tioxazafen was combined with commercial fungicides and insecticides in a tank slurry mix with colorant, polymer, and water at the recommended rates and allowed to mix thoroughly. Using a Gustafson continuous batch seed coater the seed batch was loaded, the treatment slurry was injected and the mixture was allowed to tumble for 35-40 seconds before being ejected into a paper storage bag.
(§2) Predictive nematode sampling was conducted prior to field trial implementation to ensure appropriate levels of nematode pressure. Trial areas were divided into 2 acre sections based upon soil type, crop history, tillage, drainage, fertilization and other agronomic factors. […] Sub-samples (˜1 pint of soil) were taken from each composite sample and placed in a plastic bag, with appropriate handling to ensure viability of nematodes, and sent to a lab for nematode quantification. […]
(§3) Quantitative in-season nematode sampling using root and soil samples was conducted eight weeks after planting for corn and soy trials. […] Samples were sent to a lab for nematode quantification.
(§4) Yield data was collected using commercially available harvesting equipment to harvest each plot. The data were calculated to represent bushels per acre by taking the grain weight over the square footage of each plot and adjusting to 15% moisture.

[2] = Soy seed treatment field trials (yield); type: in vivo; conditions: seed treatment in soy, multi-location replicated field trials
Experimental: as §1, §2, §3, §4

root knot nematode (RKN) [3] = test: RKN greenhouse soil assay on cucumber plants; type: in vivo; conditions: Acetone formulation (10% acetone in 0.05% Triton X 100), 1 mg/kg
Text: Cucumber seeds are planted in a sandy soil mixture in two inch square plastic pots. When the cotyledons are fully opened and just as the first leaf begins to emerge, usually 7 days after planting, chemistry for the 7 day treatment is applied. One week later the chemistry for the 0 day treatment is applied. Separate plants are used for each application. The plants are generally in the 1-2 leaf stage now. At least four hours after the chemistry application the pots are inoculated with root knot nematode (RKN) eggs. Plants are rated for galling 14 days after the egg inoculation.
(§5) One milligram of chemistry per four pots is equal to one kilogram per hectare of chemical. A standard test uses four replications. For rates above 2 kg/ha, the desired amount of chemical is weighed into a 30 ml vial (example: 8 kg/ha rate =8 mg chemical in 30 ml vial). The chemical is dissolved in 2 ml of appropriate solvent, generally acetone. For rates below 2 kg/ha, 2 milligrams of chemistry is weighed into the vial and dissolved in 2 ml of the solvent. The appropriate amount of chemical concentrate is then pipetted into a separate 30 ml vial and solvent is added to bring the volume to 2 ml (example 0.5 kg/ha=0.5 ml of concentrate+1.5 ml solvent). Each dissolved concentrate is then brought to a total of 20 milliliters using 0.05% Triton X 100 surfactant solution.
(§6) Pots to be treated are moist but not saturated. To each of four pots, five milliliters of the appropriate chemical solution is pipetted to the media surface making sure to avoid contact with the base of the plant. Immediately following chemical application, using a mist nozzle, the pot surface is wetted sufficiently to saturate the pot watering in the chemistry. The chemical application is done in the morning.
(§7) Nematode eggs, either SCN or RKN, are added to distilled water to create a concentration of 1000 vermiform eggs […]. At least four hours after chemical treatment the eggs are applied to the treated pots plus non-treated check plants. A small hole about 1 cm deep is punched into the pot surface. One milliliter of the nematode egg slurry is pipetted into the hole. Immediately afterwards the hole is gently covered. Watering of the test plants is then restricted to only water as needed to prevent wilt for a period of 24 hours. After the 24 hour restricted watering, normal sub-irrigation watering is done for the duration of the test.

root knot nematode = test: Pre-plant incorporated (PPI) greenhouse test of root knot nematode on cucumber plants; type: in vivo; conditions: fourteen day pre-plant incorporated; for pest or weed control at 4000 g/ha: 336 h, 4 kg/ha, read-out: percent control (galling reduction), 4 kg/ha rate; for pest or weed control at 8000 g/ha: 8 ka/ha, read-out: percent control (galling reduction), 8 ka/ha rate
Text: The PPI test examines the effect of pre-incorporation of compounds in soil and longer aging to simulate in furrow methods of nematicide application in the field. The PPI test exposes compounds to a higher volume of soil and drying which can result in more severe soil binding. Compounds are also aged for longer periods which can lead to more extensive biotic and abiotic degradation further limiting activity.
The chemically treated soil (sandy soil mix) for all treatment days (e.g., 7 days, 14 days, 21 days) treatments is potted into their appropriate pots. On the same day the 7 day treatment pots are seeded. One week later eggs are applied and 14 days after egg application the test is harvested. The 14 day treatments are planted 7 days after the first planting. The 14 day planting and 7 day inoculation happen on the same day. One week later the 14 day treatments are inoculated with eggs. These are harvested 14 days after the inoculation. The 21 day treatments are planted 14 days after the first planting. The 14 day inoculation and 21 day planting are done on the same day. One week later the 21 day plants are inoculated with eggs. The 7 day treatment is harvested the same day as the 21 day inoculation. Fourteen days after inoculation the 21 day plants are harvested.
For each compound a stock is prepared using 4 mg material in 4 ml of acetone. The soil is mixed by placing 80 ml of field soil and 320 ml of sand in a plastic bag and mixing well. The formulation for treatment is done by adding 2.13 ml (8 kg/ha rate), 1.06 ml (4 kg/ha rate) or 0.53 ml (2 kg/ha rate) to a vial and raising it with 10 ml in 0.05% X100. Soil is then treated by adding the entire 10 ml to the 400 ml of mix in the bag. The treated soil is immediately mixed well in the sealed bag to distribute the compound evenly. Approximately 95 ml is used to fill each 2-inch square pot up to the top with some soil compression and flattening. For each compound and for the control treatments 4 pots are filled. All pots are watered until moist but with no run-out through the bottom.
The PPI test simulates 8, 4 and 2 kg/ha rates incorporated 15 cm deep in the field and is equivalent to the 2, 1 and 0.5 kg/ha drench application rates in the standard 2-inch pot cucumber greenhouse assay.

[4] = system: Heterodera glycines (SCN); test: Seed treatment test of soybean cyst nematode on soybean; type: in vivo; conditions: for pest or weed control at 0.375 mg/g / pest or weed control at 1.5 mg/g: Heterodera glycines, 672 h, read-out: percent cyst reduction relative to control blank treatment
Experimental: (§8) For a given concentration the chemical is dissolved in 500 ul of acetone and one gram of cucumber seed (RKN test) or soybean seed (SCN test) is added (e.g., 20 mg active ingredient in 500 ul acetone plus 1 gram of seed). The seed solutions are agitated until all seeds were thoroughly covered with the chemical solution. The acetone is then allowed to evaporate by air drying the seeds. The seeds are planted in 2-inch pots containing sandy soil and then the pots are inoculated with 1000 Meloidogyne incognita (RKN) or 1000 Heterodera glycines (SCN) eggs per pot three days after planting. Plants are rated for galling 14 days after egg inoculation for RKN or 28 days after egg inoculation for SCN.

root knot nematode (RKN) [5] = test: RKN greenhouse soil assay on cucumber plants; type: in vivo; conditions: Radex emulsifiable concentrate formulation (6.25% active ingredient)
Meloidogyne incognita = test: Summer field evaluation of pre-plant incorporated compounds on squash; type: in vivo; conditions: 4 kg/ha
Experimental: Test plots of 33 cm diameter holes were bored 41 cm deep into clay soil and filled with a mixture of 80% sand and 20% silt loam soil. Technical compound for each treatment was dissolved in 50 ml acetone containing 250 ul of Triton X-100 surfactant. This solution was added to 450 ml water and poured onto 95 liters of sand/soil mixture in a rotating drum mixer. While continuing to rotate the mixing drum 66 grams of chopped, galled, tomato roots was added and thoroughly distributed. The treated soil was sufficient to fill the top 15 cm of each of the 6 replicate plots, thus simulating a PPI treatment. The plots were then watered lightly and a mixture of M. incognita eggs and larvae were injected 5 cm deep at 5 points within the plot (100k eggs/larvae in 10m1 per plot). Three-week old squash (cv. Liberator III) with 1 fully expanded true leaf was planted 4 days after soil treatment, one per plot.

[6] = system: soybean cyst nematode (SCN); test: SCN greenhouse sand assay on soybean plants; type: in vivo; conditions: Glycine max, 672 h, test d, read-out: percent control (cyst number reduction) relative to the control blank treatment; for pest or weed control at 100 g/ha: 0.1 kg/ha; for pest or weed control at 250 g/ha: 0.25 kg/ha
Text: Soybeans seeds are planted in 100% sand in two inch square plastic pots. Chemical treatment is done when the soybeans show the first trifoliate beginning to emerge about 10 to 12 days after planting. At least four hours after chemical application the nematode soybean cyst nematode (SCN) eggs are applied and 28 days after the egg inoculation the test is harvested.
as §5, §6, §7

C. elegans = test: Three day C. elegans well assay; type: in vivo; conditions: Caenorhabditis elegans, L1 larvae
Summary of the method: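 Contact assay in wells: DMSO dilutions (4 ul from 100× stocks at 10 mg/ml) with bacterial feed in M9 buffer plus ampicillin and nystatin. L1 (starvation-arrested) or L4 worms added, shaken at 20° C. Scored at 4, 24, 48 and 72 hours.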

caspase-3 = test: Caspase-3 activity in H4IIE cells (DEVD-AMC); type: cell-based; conditions: rat hepatoma derived H4IIE cells, concentrations up to 300 μM
Experimental: To evaluate whether the compound classes of this invention are able to induce apoptosis, caspase-3 activity was determined after compound exposure in rat hepatoma derived H4IIE cells using a caspase substrate (DEVD, Asp-Glu-Val-Asp) labeled with a fluorescent molecule, 7-Amino-4-methylcoumarin (AMC). Caspase 3 cleaves the tetrapeptide between D and AMC, thus releasing the fluorogenic […] AMC. Following the test article exposure to cells in 96-well plates, medium was aspirated from plates and PBS added to each well. Plates were stored at −80° C. to lyse cells and store samples until further analysis. On the day of analysis, plates were removed from freezer and thawed. Caspase buffer with fluorescent substrate was added to each well and incubated at room temperature for one hour. AMC release was measured in a spectrofluorometer at an excitation wavelength of 360 nm and an emission wavelength of 460 nm. Values are expressed as relative fluorescent units (RFU).

[7] = system: Meloidogyne incognita (RKN); test: Seed treatment test of root knot nematode on cucumber; type: in vivo; conditions: 10 mg ai/gram seed (abamectin positive control), cucumber seeds
Experimental: as §8

[8] = mice; cited from earlier work
[9] = 24 h, one day of exposure, read-out: EC50 L1 1D
[10] = 48 h, two days of exposure, read-out: EC50 L1 2D
[11] = 72 h, three days of exposure, read-out: EC50 L1 3D

For `c1ccc(-c2noc(-c3cccs3)n2)cc1` [Tioxazafen, 3-phenyl-5-(2-thienyl)-1,2,4-oxadiazole], the effect on yield [1] was “yield enhancement” and the effect on yield [2] was “yield enhancement”.

For `Fc1ccc(-c2noc(-c3cccs3)n2)cc1` [compound 5479], the “percent control (galling reduction), Acetone 1 mg/kg” value (root knot nematode (RKN) [3]) was 91%, the pest or weed control at 4000 g/ha (root knot nematode; test a) was 89% and the “percent control (galling reduction), 2 kg/ha rate” value (root knot nematode; test a) was 71^a percent. The pest or weed control at 8000 g/ha (root knot nematode; test a) was 100%, the pest or weed control at 0.375 mg/g ([4]; 0.375 mg ai/gram seed, test a) was 67% and the pest or weed control at 0.375 mg/g ([4]; 0.375 mg ai/gram seed, test b) was 69%. The pest or weed control at 1.5 mg/g ([4]; 1.5 mg ai/gram seed, test a) was 88%, the pest or weed control at 1.5 mg/g ([4]; 1.5 mg ai/gram seed, test b) was 83% and the “percent control (galling reduction), Radex 1 mg/kg” value (root knot nematode (RKN) [5]) was 96%.

In the case of `Clc1ccc(-c2noc(-c3ccco3)n2)cc1` [compound 5523], the “percent control (galling reduction), Acetone 1 mg/kg” value (root knot nematode (RKN) [3]) is reported as 86%, the pest or weed control at 4000 g/ha (root knot nematode; test a) is reported as 87% and the “percent control (galling reduction), 2 kg/ha rate” value (root knot nematode; test a) is reported as 59^a percent. For the same compound, the pest or weed control at 8000 g/ha (root knot nematode; test a) was 99%, the “control of M. incognita by PPI application” value (Meloidogyne incognita) was “significant control” and the “percent control (galling reduction), Radex 1 mg/kg” value (root knot nematode (RKN) [5]) was 86%.

In the case of `Clc1ccc(-c2noc(-c3cccs3)n2)cc1` [compound 5527], the “percent control (galling reduction), Acetone 1 mg/kg” value (root knot nematode (RKN) [3]) is reported as 91%, the pest or weed control at 4000 g/ha (root knot nematode; test a) is reported as 90% and the “percent control (galling reduction), 2 kg/ha rate” value (root knot nematode; test a) is reported as 57^a percent. For the same compound, the pest or weed control at 8000 g/ha (root knot nematode; test a) was 96%, the pest or weed control at 0.375 mg/g ([4]; 0.375 mg ai/gram seed, test a) was 43% and the pest or weed control at 1.5 mg/g ([4]; 1.5 mg ai/gram seed, test a) was 71%. For the same compound, the “percent control (galling reduction), Radex 1 mg/kg” value (root knot nematode (RKN) [5]) was 80%.

`Fc1cc(Cl)ccc1-c1cnc(-c2cccs2)o1` [compound 5915] showed a pest or weed control at 100 g/ha [6] of 44%, a pest or weed control at 250 g/ha [6] of 74% and an EC50 (C. elegans; [9]) of 0.4 µg/mL (≈ 1.43 µM). For the same compound, the EC50 (C. elegans; [10]) was 0.4 µg/mL (≈ 1.43 µM), the EC50 (C. elegans; [11]) was 0.4 µg/mL (≈ 1.43 µM) and the pest or weed control at 4000 g/ha (root knot nematode; test b) was 70%. For the same compound, the pest or weed control at 8000 g/ha (root knot nematode; test b) was 99% and the “induction of caspase-3” value (caspase-3) was “no induction of caspase-3”.

Work on `Cc1cc(Cl)ccc1-c1nsc(-c2ccco2)n1` [compound 5938] yielded a pest or weed control at 100 g/ha [6] of 60%, a pest or weed control at 250 g/ha [6] of 89% and an EC50 (C. elegans; [9]) of 1.6 µg/mL (≈ 5.78 µM). It also gave an EC50 (C. elegans; [10]) of 1.6 µg/mL (≈ 5.78 µM), an EC50 (C. elegans; [11]) of 1.6 µg/mL (≈ 5.78 µM) and a pest or weed control at 4000 g/ha (root knot nematode; test b) of 90%. The pest or weed control at 8000 g/ha (root knot nematode; test b) was 100%, the “control of M. incognita by PPI application” value (Meloidogyne incognita) was “excellent control” and the “induction of caspase-3” value (caspase-3) was “no induction of caspase-3”.

For Abamectin [reference compound], the “percent control (galling reduction) relative to the control blank treatment” value [7] was 84%, the “percent cyst reduction relative to control blank treatment” value ([4]; 0.375 mg ai/gram seed, test a) was −14^a percent and the “percent cyst reduction relative to control blank treatment” value ([4]; 1.5 mg ai/gram seed, test a) was −24^a percent. For the same compound, the “oral LD50” value [8] was 13.6 mg/kg.

Source: patent US20170367338A1, “COMPOSITIONS AND METHODS FOR IMPROVING AGRONOMIC CHARACTERISTICS OF PLANTS” (MONSANTO TECHNOLOGY LLC, priority 2014, published 2017)
